The values below come from ChEMBL document CHEMBL4483862, “Open-source discovery of chemical leads for next-generation chemoprotective antimalarials” (2018).

In the assay the test system is Plasmodium berghei. The assay can be described thus: Luciferase/luciferin-expressing antifolate-resistant parasites were used to infect a culture of HepG2 cells that were pre-incubated with compounds. Infected hepatocytes emit light due to the luciferase reaction. Assay results are presented as the percent inhibition of light emission compared to control. […]. Conditions: sporozoite; for IC90: read-out: LUCIFERASE INFECTION ASSAY - IC90. It counts as functional.

The mark [1] stands for this setting: read-out: LUCIFERASE INFECTION ASSAY - IC50.

`O=C(CSc1ncnc2sc(-c3ccccc3)cc12)NCc1ccc(F)cc1`: the IC90 is more than 10 µM. Moreover, the IC50 (HEPG2TOX_HILL_SLOPE 9.03, HEPG2TOX_R_SQUARED 0.325, PBLUC_HILL_SLOPE 19.9, PBLUC_R_SQUARED 0.0271, read-out: LUCIFERASE INFECTION ASSAY - IC50) worked out at 9.7 µM.
As for `Nc1ncnc(N/N=C/c2ccc(O)cc2O)c1[N+](=O)[O-]`, the IC90 was more than 10 µM. Under “FFLUC_HILL_SLOPE 17.8, FFLUC_R_SQUARED 0.491, HEPG2TOX_HILL_SLOPE 1.97, HEPG2TOX_R_SQUARED 0.831, read-out: LUCIFERASE INFECTION ASSAY - IC50”, the IC50 is more than 10 µM.
`O=[N+]([O-])c1cc(-c2nc(-c3cc(C(F)(F)F)cc(C(F)(F)F)c3)no2)cs1`: the IC90 is more than 8.06 µM. For the same compound, the IC50 (HEPG2TOX_HILL_SLOPE 11.5, HEPG2TOX_R_SQUARED 0.674, read-out: LUCIFERASE INFECTION ASSAY - IC50) was more than 8.06 µM.
For `CC(C)c1ccc(-n2c(SCc3ccccc3Cl)nnc2-c2ccc(C(C)(C)C)cc2)cc1`, the IC90 worked out at 4.57 µM. The half-inhibitory concentration (IC50) (PBLUC_HILL_SLOPE 6.16, PBLUC_R_SQUARED 0.605, read-out: LUCIFERASE INFECTION ASSAY - IC50) amounted to 3.2 µM.
With `CN(C)C(=O)c1ccc(-c2ccnc3n[nH]c(-c4ccc(N(C)C)cc4)c23)cc1`, the IC90 came to 5.06 µM. The IC50 (HEPG2TOX_HILL_SLOPE 14.4, HEPG2TOX_R_SQUARED 0.857, PBLUC_HILL_SLOPE 6.94, PBLUC_R_SQUARED 0.445, read-out: LUCIFERASE INFECTION ASSAY - IC50) was 3.69 µM.
Regarding `O=C(Nc1nc2ccccc2[nH]1)c1ccc(-c2ccc(F)cc2)s1`, the IC90 was 5.74 µM. For the setting “PBLUC_HILL_SLOPE 3.71, PBLUC_R_SQUARED 0.757, read-out: LUCIFERASE INFECTION ASSAY - IC50”, the IC50 came to 3.18 µM.
Regarding `CC(C)CNc1cc(N2CCN(C)CC2)c(N)c2c1C(=O)c1ccccc1C2=O`, the IC90 was more than 8.41 µM. The IC50 under setting [1] is more than 8.41 µM.
Consider `CCN1CCN(c2nc(-c3ccccc3)nc3sc(-c4ccccc4)cc23)CC1`, for which the IC90 was more than 10 µM. The IC50 (HEPG2TOX_HILL_SLOPE 6.07, HEPG2TOX_R_SQUARED 0.861, PBLUC_HILL_SLOPE 3.24, PBLUC_R_SQUARED 0.199, read-out: LUCIFERASE INFECTION ASSAY - IC50) turned out to be 6.9 µM.
`CC(Sc1nc2scc(-c3ccccc3)c2c(=O)n1C)c1ccccc1` (stereo not given): the IC90 was more than 10 µM. Further, the IC50 (HEPG2TOX_HILL_SLOPE 0.394, HEPG2TOX_R_SQUARED 0.0907, read-out: LUCIFERASE INFECTION ASSAY - IC50) was more than 10 µM.
For `O=C(Nc1cccc2c[nH]nc12)c1cn(-c2ccccc2Br)nn1`, the IC90 is more than 10 µM. In addition, the IC50 under setting [1] was more than 10 µM.
Take `Cc1ccc(C2=NN(C(=O)c3ccccc3)C(c3ccccc3O)C2)cc1` (stereo not given): the IC90 was 8.37 µM. Further, the IC50 (FFLUC_HILL_SLOPE 4.22, FFLUC_R_SQUARED 0.285, HEPG2TOX_HILL_SLOPE 3.02, HEPG2TOX_R_SQUARED 0.969, PBLUC_HILL_SLOPE 1.84, PBLUC_R_SQUARED 0.813, read-out: LUCIFERASE INFECTION ASSAY - IC50) worked out at 2.54 µM.
For `O=C(c1cc(-c2ccccc2)nc2ccccc12)N1N=CCC1(O)C(F)(F)F` (stereo not given), the IC90 was found to be 8.59 µM. Under “PBLUC_HILL_SLOPE 5.58, 3.40, PBLUC_R_SQUARED 0.0168, 0.865, read-out: LUCIFERASE INFECTION ASSAY - IC50”, the IC50 was found to be 4.5 µM.
Consider `c1ccc(CNc2nn3c(-c4ccccc4)cnc3s2)cc1`, for which the IC90 worked out at 4.14 µM. For the same compound, the IC50 (PBLUC_HILL_SLOPE 12.3, PBLUC_R_SQUARED 0.487, read-out: LUCIFERASE INFECTION ASSAY - IC50) is 3.47 µM.
As to `COc1ccc(CN2C(=O)N(C)C3(CCN(Cc4ccc(N(C)c5ccccc5)cc4)CC3)C2=O)cc1`, the IC90 stood at 3.8 µM. Besides, the IC50 (HEPG2TOX_HILL_SLOPE 3.68, HEPG2TOX_R_SQUARED 0.977, PBLUC_HILL_SLOPE 4.63, PBLUC_R_SQUARED 0.726, read-out: LUCIFERASE INFECTION ASSAY - IC50) was found to be 2.36 µM.
Take `NC(=O)c1c(NC(=O)/C=C/c2cn(-c3ccccc3)nc2-c2cccnc2)sc2c1CCCC2`: the IC90 was more than 10 µM. Also, the IC50 under setting [1] is more than 10 µM.
For `Cc1ccc2nc(NC(=O)c3cccc(Cl)c3)c(C(=O)NC3CCCC3)n2c1`, the IC90 was 1.47 µM. Further, the IC50 (FFLUC_HILL_SLOPE 23.2, FFLUC_R_SQUARED 0.442, HEPG2TOX_HILL_SLOPE 1.26, HEPG2TOX_R_SQUARED 0.897, PBLUC_HILL_SLOPE 7.29, PBLUC_R_SQUARED 0.437, read-out: LUCIFERASE INFECTION ASSAY - IC50) was 1.09 µM.
Regarding `Cn1c(-c2cccnc2)cc2cnc(Nc3ccc(OC(F)(F)F)cc3)cc21`, the IC90 is 9.47 µM. The IC50 (HEPG2TOX_HILL_SLOPE 2.53, HEPG2TOX_R_SQUARED 0.903, PBLUC_HILL_SLOPE 4.19, PBLUC_R_SQUARED 0.443, read-out: LUCIFERASE INFECTION ASSAY - IC50) was 5.61 µM.
Turning to `O=c1nc(CCc2ccc3c(c2)OCCO3)[nH]c2ccccc12`, the IC90 was 3.7 µM. Moreover, under “PBLUC_HILL_SLOPE 12.5, PBLUC_R_SQUARED 0.668, read-out: LUCIFERASE INFECTION ASSAY - IC50”, the IC50 stood at 3.11 µM.
On to `Cn1c(C(C#N)C(=O)c2cc(-c3ccccc3)nc3ccccc23)nc2ccccc21` (stereo not given), for which the IC90 came out at 7.46 µM. Further, the IC50 (HEPG2TOX_HILL_SLOPE 3.46, HEPG2TOX_R_SQUARED 0.527, PBLUC_HILL_SLOPE 3.86, PBLUC_R_SQUARED 0.794, read-out: LUCIFERASE INFECTION ASSAY - IC50) was 4.22 µM.
`CN(C)c1ccc(/C=C/c2cccc[n+]2C)cc1`: the IC90 was more than 9.01 µM. Further, where the note is “HEPG2TOX_HILL_SLOPE 3.15, HEPG2TOX_R_SQUARED 0.984, PBLUC_HILL_SLOPE 12.7, PBLUC_R_SQUARED 0.413, read-out: LUCIFERASE INFECTION ASSAY - IC50”, the IC50 is 7.92 µM.
Regarding `Cc1c(Sc2ccc(Cl)cc2)c2ccccn2c1C(=O)c1cccs1`, the IC90 was more than 10 µM. In addition, under “PBLUC_HILL_SLOPE 3.16, PBLUC_R_SQUARED 0.487, read-out: LUCIFERASE INFECTION ASSAY - IC50”, the IC50 was determined as 6.35 µM.
Turning to `COc1ccc(-c2cnc3ccc(NCc4ccc(S(N)(=O)=O)cc4)nn23)cn1`, the IC90 was more than 8.04 µM. The IC50 (HEPG2TOX_HILL_SLOPE 2.67, HEPG2TOX_R_SQUARED 0.289, PBLUC_HILL_SLOPE 3.8, PBLUC_R_SQUARED 0.626, read-out: LUCIFERASE INFECTION ASSAY - IC50) was 4.71 µM.
`Oc1c(C(Nc2ccccn2)c2ccsc2)cc(Cl)c2cccnc12` (stereo not given): the IC90 was more than 8.97 µM. In addition, under “FFLUC_HILL_SLOPE 4.25, FFLUC_R_SQUARED 0.273, HEPG2TOX_HILL_SLOPE 7.18, HEPG2TOX_R_SQUARED 0.784, PBLUC_HILL_SLOPE 2.69, PBLUC_R_SQUARED 0.266, read-out: LUCIFERASE INFECTION ASSAY - IC50”, the IC50 is 4.02 µM.
Take `CCCn1c(NC(=O)c2c(C)nn(Cc3ccccc3)c2Cl)nc2ccccc21`: the IC90 was more than 10 µM. Also, for the setting “HEPG2TOX_HILL_SLOPE 8.06, 7.61, HEPG2TOX_R_SQUARED 0.217, 0.871, PBLUC_HILL_SLOPE 3.35, PBLUC_R_SQUARED 0.605, read-out: LUCIFERASE INFECTION ASSAY - IC50”, the IC50 is 5.57 µM.
As for `CCOC(=O)c1cnn(-c2ccc(NC(=O)COc3ccccc3C#N)cc2)c1C(F)(F)F`, the IC90 was more than 10 µM. The IC50 under setting [1] is more than 10 µM.
Turning to `O=C(CSCCCN1CCN(c2cccc(Cl)c2)CC1)N/N=C/c1ccccc1`, the IC90 was more than 7.66 µM. In addition, under setting [1], the IC50 is more than 7.66 µM.
Consider `COc1ccc(N(Cc2cn(-c3ccccc3)nc2-c2ccc(Cl)cc2)S(=O)(=O)c2ccccc2)cc1`, for which the IC90 is more than 10 µM. Besides, the IC50 (FFLUC_HILL_SLOPE 12.1, FFLUC_R_SQUARED 0.616, PBLUC_HILL_SLOPE 4, PBLUC_R_SQUARED 0.331, read-out: LUCIFERASE INFECTION ASSAY - IC50) was determined as 7.59 µM.
As for `CNS(=O)(=O)c1ccc(CCC(=O)OC2CCCCC2=O)cc1` (stereo not given), the IC90 was more than 10 µM. Moreover, the IC50 under setting [1] is more than 10 µM.
In the case of `C=C(CS(=O)(=O)c1ccccc1)C(=O)Nc1ccc(C(F)(F)F)cc1`, the IC90 amounted to 7.91 µM. For the setting “HEPG2TOX_HILL_SLOPE 10, HEPG2TOX_R_SQUARED 0.961, PBLUC_HILL_SLOPE 2.89, PBLUC_R_SQUARED 0.554, read-out: LUCIFERASE INFECTION ASSAY - IC50”, the IC50 was found to be 3.7 µM.
With `CCOc1ccc(C2(O)C(C)N3C(=[N+]2c2ccc(OC)cc2)CCc2ccccc23)cc1` (stereo not given), the IC90 is more than 10 µM. Moreover, the concentration for half-maximal inhibition (IC50) under setting [1] was more than 10 µM.
For the compound `CC(C)CC(N)c1csc(NC(=O)NC(c2ccccc2)c2ccccc2)n1` (stereo not given), the IC90 was 3.63 µM. Further, the IC50 under setting [1] is 2.93 µM.
With `Cc1cc(=O)n2nc(CSc3nc4ccccc4c(=O)n3C3CCCC3)sc2n1`, the IC90 was more than 10 µM. For the same compound, the IC50 under setting [1] was more than 10 µM.
For the compound `COCCCN1C(=O)N(Cc2ccccc2)C(=O)C12CCN(CCC(C)c1ccc(C)o1)CC2` (stereo not given), the IC90 is more than 7.06 µM. Also, the IC50 (PBLUC_HILL_SLOPE 7.49, PBLUC_R_SQUARED 0.22, read-out: LUCIFERASE INFECTION ASSAY - IC50) is 6.36 µM.
On to `NC(=O)c1c(NC(=O)NCc2ccncc2)sc2c1CCCC2`, for which the IC90 was more than 9.99 µM. The IC50 under setting [1] is more than 9.99 µM.
With `O=C(CN1CCN(c2cccc(Cl)c2)CC1)Nc1cc(C2CC2)nn1-c1ccccc1`, the IC90 was more than 10 µM. Further, the IC50 (PBLUC_HILL_SLOPE 3.16, PBLUC_R_SQUARED 0.0582, read-out: LUCIFERASE INFECTION ASSAY - IC50) came to 6.87 µM.
